{"source": "paper PMC12557365", "about": "(Journal of Medicinal Chemistry, 2025)", "key": {"Human Cathepsin B/D/G/L": {"test_system": "Human Cathepsin B/D/G/L", "type": "biochemical"}, "P-gp [1]": {"target": "T1, P-gp (Homo sapiens, UniProt P08183)", "T1 sequence (P08183 whole entry)": "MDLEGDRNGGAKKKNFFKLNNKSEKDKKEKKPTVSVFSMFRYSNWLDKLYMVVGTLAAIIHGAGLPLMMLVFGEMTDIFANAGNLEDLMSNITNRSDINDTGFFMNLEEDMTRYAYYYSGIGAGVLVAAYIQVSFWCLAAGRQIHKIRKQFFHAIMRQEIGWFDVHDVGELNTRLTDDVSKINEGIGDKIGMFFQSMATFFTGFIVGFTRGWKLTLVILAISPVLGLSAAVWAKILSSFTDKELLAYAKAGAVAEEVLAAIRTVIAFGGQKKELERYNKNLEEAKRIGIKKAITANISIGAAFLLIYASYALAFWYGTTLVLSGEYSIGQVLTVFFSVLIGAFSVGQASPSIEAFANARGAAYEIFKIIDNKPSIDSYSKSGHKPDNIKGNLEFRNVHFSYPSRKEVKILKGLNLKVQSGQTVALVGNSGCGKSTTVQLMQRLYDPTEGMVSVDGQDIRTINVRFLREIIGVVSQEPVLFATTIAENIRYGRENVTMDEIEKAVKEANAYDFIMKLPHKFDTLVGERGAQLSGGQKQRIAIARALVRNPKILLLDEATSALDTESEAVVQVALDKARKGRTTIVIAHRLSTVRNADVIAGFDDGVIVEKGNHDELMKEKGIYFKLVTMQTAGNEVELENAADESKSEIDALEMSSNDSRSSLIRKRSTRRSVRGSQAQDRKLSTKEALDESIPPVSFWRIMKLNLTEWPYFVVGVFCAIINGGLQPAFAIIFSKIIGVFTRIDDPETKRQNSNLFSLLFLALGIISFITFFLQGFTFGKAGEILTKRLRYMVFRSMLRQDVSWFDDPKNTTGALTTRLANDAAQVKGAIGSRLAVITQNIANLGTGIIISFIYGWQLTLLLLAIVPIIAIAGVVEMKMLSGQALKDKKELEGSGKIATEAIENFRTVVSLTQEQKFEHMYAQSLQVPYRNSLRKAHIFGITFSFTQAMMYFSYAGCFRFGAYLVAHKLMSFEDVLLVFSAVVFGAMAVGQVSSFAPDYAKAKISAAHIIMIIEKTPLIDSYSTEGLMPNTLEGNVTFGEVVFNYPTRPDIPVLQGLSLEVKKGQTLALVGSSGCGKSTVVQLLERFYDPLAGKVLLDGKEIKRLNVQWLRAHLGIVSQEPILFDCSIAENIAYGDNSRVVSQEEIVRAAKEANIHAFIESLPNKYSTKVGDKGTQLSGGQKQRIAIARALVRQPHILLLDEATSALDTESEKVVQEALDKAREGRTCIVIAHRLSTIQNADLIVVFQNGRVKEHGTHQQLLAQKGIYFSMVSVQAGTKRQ", "details": "LLC-PK1"}, "Human Chymotrypsin": {"test_system": "Human Chymotrypsin", "type": "biochemical"}, "in vitro [2]": {"experiment": "in vitro", "details": "African green monkey"}, "Human Thrombin": {"target": "Human Thrombin (Homo sapiens, UniProt P00734)", "experiment": "biochemical"}, "[3]": {"test_system": "SARS-CoV-2 Gamma strain (hCoV-19/Japan/TY7-501/2021)", "design": "species or system BALB/cAJcl mice", "details": "mouse, in vivo"}, "P-gp [4]": {"target": "T1, P-gp", "experiment": "in vitro", "details": "LLC-PK1"}, "HCoV-OC43": {"test_system": "HCoV-OC43", "experiment": "microbe, parasite or virus in culture", "type": "cell-based", "details": "Betacoronavirus 1, OC43, MRC5, read-out: EC50 HCoV-OC43"}, "[5]": {"test_system": "SARS-CoV-2 Gamma strain (hCoV-19/Japan/TY7-501/2021)", "experiment": "microbe, parasite or virus in culture", "type": "cell-based"}, "in vivo [6]": {"experiment": "in vivo", "details": "male, beagle, dog, iv, 0.1 mg/kg"}, "SARS-CoV [7]": {"test_system": "SARS-CoV", "experiment": "microbe, parasite or virus in culture", "type": "cell-based", "details": "Severe acute respiratory syndrome coronavirus, VeroE6/TMPRSS2, read-out: EC50 SARS-CoV"}, "in vitro [8]": {"experiment": "in vitro", "details": "both, human, microsomes"}, "HIV-1 Protease": {"target": "HIV-1 Protease (Human immunodeficiency virus type 1 group M subtype B, UniProt P04585)", "experiment": "biochemical"}, "MERS-CoV [9]": {"test_system": "MERS-CoV", "experiment": "microbe, parasite or virus in culture", "type": "cell-based", "details": "Middle East respiratory syndrome-related coronavirus, VeroE6/TMPRSS2, read-out: EC50 MERS-CoV"}, "[10]": {"details": "in vivo"}, "[11]": {"test_system": "SARS-CoV-2 Omicron strains", "experiment": "microbe, parasite or virus in culture", "type": "cell-based", "details": "Severe acute respiratory syndrome coronavirus 2, Epithelial cell"}, "in vivo [12]": {"experiment": "in vivo", "details": "female, cynomolgus monkey, iv, 0.1 mg/kg"}, "SARS-CoV-2": {"test_system": "SARS-CoV-2", "experiment": "microbe, parasite or virus in culture", "type": "cell-based", "details": "Severe acute respiratory syndrome coronavirus 2, A549"}, "[13]": {"details": "pig"}, "[14]": {"test_system": "SARS-CoV-2 hCoV-19/Japan/TY/WK-521 strain", "experiment": "microbe, parasite or virus in culture", "type": "cell-based", "details": "Severe acute respiratory syndrome coronavirus 2, HEK-293T, read-out: HEK 293T-AT EC50"}, "in vitro [15]": {"experiment": "in vitro", "details": "pig, LLC-PK1"}, "in vitro [16]": {"experiment": "in vitro", "details": "male, rat, microsomes"}, "in vivo [17]": {"experiment": "in vivo", "details": "male, Sprague-Dawley, rat"}, "HCoV-229E [18]": {"test_system": "HCoV-229E", "experiment": "microbe, parasite or virus in culture", "type": "cell-based", "details": "read-out: EC50 HCoV-229E"}, "Human Caspase 2": {"target": "Human Caspase 2 (Homo sapiens, UniProt P42575)", "sequence (P42575 170-333)": "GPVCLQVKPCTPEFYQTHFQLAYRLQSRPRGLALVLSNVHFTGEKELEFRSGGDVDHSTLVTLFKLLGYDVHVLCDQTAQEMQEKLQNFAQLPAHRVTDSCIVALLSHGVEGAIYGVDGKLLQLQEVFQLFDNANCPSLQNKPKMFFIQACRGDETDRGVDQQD", "sequence (P42575 348-452)": "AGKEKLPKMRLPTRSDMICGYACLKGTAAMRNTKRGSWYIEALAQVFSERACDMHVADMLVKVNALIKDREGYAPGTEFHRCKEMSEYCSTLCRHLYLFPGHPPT", "experiment": "biochemical"}, "[19]": {"test_system": "SARS-CoV-2 hCoV-19/Japan/TY/WK-521 strain", "details": "read-out: HEK 293T-AT EC50; cited from earlier work"}, "[20]": {"details": "human, microsomes, 0.5 h; cited from earlier work"}, "HCoV-229E [21]": {"test_system": "HCoV-229E", "details": "cited from earlier work"}, "MERS-CoV [22]": {"test_system": "MERS-CoV", "details": "cited from earlier work"}, "SARS-CoV [23]": {"test_system": "SARS-CoV", "details": "cited from earlier work"}, "[24]": {"details": "rat, microsomes, 0.5 h; cited from earlier work"}, "[25]": {"details": "LLC-PK1; cited from earlier work"}, "P-gp [26]": {"target": "T1, P-gp", "details": "LLC-PK1; cited from earlier work"}, "[27]": {"details": "Severe acute respiratory syndrome coronavirus 2, VeroE6/TMPRSS2, read-out: EC90, 0% serum"}, "[28]": {"details": "Severe acute respiratory syndrome coronavirus 2, VeroE6/TMPRSS2, read-out: EC90, 12.5% serum"}, "[29]": {"details": "Severe acute respiratory syndrome coronavirus 2, VeroE6/TMPRSS2, read-out: EC90, 25% serum"}}, "note": "“And” between values parts separate entries of the source, which are not always exact repeats. Equal values may be shown once. “Also recorded” adds a separate entry of the source. Read-outs that look alike come from different tables or passages of the source."}
{"smiles": "N#CCn1c(N2CC3(C2)CC(F)(F)C3)c(-c2ccc(F)c(Cl)c2)c(=O)n(-c2cncc(Cl)c2)c1=O", "note": "[Compound 17, [5-(3-Chloro-4-fluorophenyl)-3-(5-chloropyridin-3-yl)-6-(6,6-difluoro-2-azaspiro[3.3]-heptan-2-yl)-2,4-dioxo-3,4-dihydropyrimidin-1(2H)-yl]-acetonitrile]", "values": [{"measurement": "IC50", "setting": "Human Cathepsin B/D/G/L", "result": "> 10000", "unit": "nM"}, {"measurement": "P-gp substrate assessment", "setting": "P-gp [1]", "result": "P-gp substrates"}, {"measurement": "IC50", "setting": "Human Chymotrypsin", "result": "> 10000", "unit": "nM"}, {"measurement": "CC50", "setting": "in vitro [2]", "result": "> 100000", "unit": "nM"}, {"measurement": "IC50", "setting": "Human Thrombin", "result": "> 10000", "unit": "nM"}, {"measurement": "lung virus titers", "setting": "[3]", "result": "reduced lung virus titers in a dose-dependent manner; also recorded: Virus titer reduction was observed; also recorded: appeared to reach maximum efficacy"}, {"measurement": "Papp A→B", "setting": "P-gp [4]", "result": 2.48, "unit": "×10⁻⁶ cm/s"}, {"measurement": "Papp B→A", "setting": "P-gp [4]", "result": 22.4, "unit": "×10⁻⁶ cm/s"}, {"measurement": "EC50", "setting": "HCoV-OC43", "result": 92, "unit": "nM"}, {"measurement": "EC90", "setting": "[5]; [27]", "result": "1.66 ± 0.14", "unit": "nM"}, {"measurement": "EC90", "setting": "[5]; [28]", "result": "1.98 ± 0.08", "unit": "nM"}, {"measurement": "EC90", "setting": "[5]; [29]", "result": "3.42 ± 0.55", "unit": "nM"}, {"measurement": "EC90", "setting": "[5]; read-out: EC90, 12.5% serum", "result": "2.43 ± 0.32", "unit": "nM"}, {"measurement": "EC90", "setting": "[5]; read-out: EC90, 25% serum", "result": "2.76 ± 0.66", "unit": "nM"}, {"measurement": "clearance", "setting": "in vivo [6]", "result": 2.52, "unit": "mL/min/kg"}, {"measurement": "half-life", "setting": "in vivo [6]", "result": 24.9, "unit": "h"}, {"measurement": "EC50", "setting": "SARS-CoV [7]", "result": 6.61, "unit": "nM"}, {"measurement": "remaining at 0.5 h", "setting": "in vitro [8]", "result": 99, "unit": "%"}, {"measurement": "IC50", "setting": "HIV-1 Protease", "result": "> 10000", "unit": "nM"}, {"measurement": "EC50", "setting": "MERS-CoV [9]", "result": 57.3, "unit": "nM"}, {"measurement": "adverse effects", "setting": "[10]", "result": "No adverse effects were observed"}, {"measurement": "teratogenicity", "setting": "[10]", "result": "No teratogenicity was observed"}, {"measurement": "EC90", "setting": "[11]", "result": "2.41 ± 1.61", "unit": "nM"}, {"measurement": "EC90", "setting": "[11]; in Mus musculus, read-out: protein-adjusted EC90 (PA-EC90)", "result": "27 nM to 28.1 nM and 0.0141 µg/mL to 0.0147 µg/mL"}, {"measurement": "clearance", "setting": "in vivo [12]", "result": 11.4, "unit": "mL/min/kg"}, {"measurement": "half-life", "setting": "in vivo [12]", "result": 7.02, "unit": "h"}, {"measurement": "EC50", "setting": "SARS-CoV-2", "result": 2.21, "unit": "nM"}, {"measurement": "LLC-PK1 P app", "setting": "[13]", "result": "6.17 × 10^–6 cm/s"}, {"measurement": "EC50", "setting": "[14]", "result": 2.48, "unit": "nM"}, {"measurement": "Papp A→B", "setting": "in vitro [15]", "result": 6.17, "unit": "×10⁻⁶ cm/s"}, {"measurement": "Papp B→A", "setting": "in vitro [15]", "result": 7.36, "unit": "×10⁻⁶ cm/s"}, {"measurement": "remaining at 0.5 h", "setting": "in vitro [16]", "result": 92, "unit": "%"}, {"measurement": "clearance", "setting": "in vivo [17]; iv", "result": 6.79, "unit": "mL/min/kg"}, {"measurement": "half-life", "setting": "in vivo [17]; iv", "result": 8.14, "unit": "h"}, {"measurement": "bioavailability", "setting": "in vivo [17]; po, 1 umol/kg", "result": 100, "unit": "%"}, {"measurement": "EC50", "setting": "HCoV-229E [18]", "result": "3570 ± 510", "unit": "nM"}, {"measurement": "IC50", "setting": "Human Caspase 2", "result": "> 10000", "unit": "nM"}]}
{"smiles": "Cn1cnc(Cn2c(=O)[nH]/c(=N\\c3cc4cn(C)nc4cc3Cl)n(Cc3cc(F)c(F)cc3F)c2=O)n1", "note": "[ensitrelvir]", "values": [{"measurement": "P-gp substrate assessment", "setting": "P-gp [1]", "result": "P-gp substrates"}, {"measurement": "EC50", "setting": "HCoV-OC43", "result": "142 ± 9", "unit": "nM"}, {"measurement": "EC90", "setting": "[5]; [27]", "result": "118 ± 52", "unit": "nM"}, {"measurement": "EC90", "setting": "[5]; [28]", "result": "367 ± 69", "unit": "nM"}, {"measurement": "EC90", "setting": "[5]; [29]", "result": "608 ± 75", "unit": "nM"}, {"measurement": "EC90", "setting": "[5]; Severe acute respiratory syndrome coronavirus 2, VeroE6/TMPRSS2, read-out: EC90, 50% serum", "result": "838 ± 191", "unit": "nM"}, {"measurement": "EC90", "setting": "[5]; Severe acute respiratory syndrome coronavirus 2, VeroE6/TMPRSS2, read-out: EC90, 100% (Extrapolated)", "result": "1590 ± 330", "unit": "nM"}, {"measurement": "EC90", "setting": "[5]; read-out: EC90, 12.5% serum", "result": "218 ± 60", "unit": "nM"}, {"measurement": "EC90", "setting": "[5]; read-out: EC90, 25% serum", "result": "462 ± 129", "unit": "nM"}, {"measurement": "EC90", "setting": "[5]; read-out: EC90, 50% serum", "result": "1560 ± 290", "unit": "nM"}, {"measurement": "EC90", "setting": "[5]; read-out: EC90, 100% (Extrapolated)", "result": "2920 ± 550", "unit": "nM"}, {"measurement": "EC50", "setting": "[19]", "result": 27, "unit": "nM"}, {"measurement": "EC90", "setting": "[11]", "result": "60.1 ± 32.8", "unit": "nM"}, {"measurement": "HLM % remained", "setting": "[20]", "result": "96/88^25%"}, {"measurement": "EC50", "setting": "SARS-CoV-2", "result": "73.1 ± 16.4", "unit": "nM"}, {"measurement": "EC50", "setting": "HCoV-229E [21]", "result": 5500, "unit": "nM"}, {"measurement": "EC50", "setting": "MERS-CoV [22]", "result": 1400, "unit": "nM"}, {"measurement": "EC50", "setting": "SARS-CoV [23]", "result": 210, "unit": "nM"}, {"measurement": "RLM % remained", "setting": "[24]", "result": "96/88^25%"}, {"measurement": "Papp Apical to Basolateral", "setting": "[25]", "result": "10.3 ± 0.3 ×10-6 cm/sec"}, {"measurement": "Papp Basolateral to Apical", "setting": "[25]", "result": "11.6 ± 0.3 ×10-6 cm/sec"}, {"measurement": "Papp Apical to Basolateral", "setting": "P-gp [26]", "result": "2.03 ± 0.07 ×10-6 cm/sec"}, {"measurement": "Papp Basolateral to Apical", "setting": "P-gp [26]", "result": "30.2 ± 1.8 ×10-6 cm/sec"}]}
